Literature values as cited in US11324821B2, “Triterpene saponin analogues” (ADJUVANCE TECHNOLOGIES, INC., priority 2017, dated 2022).

Conditions: cited from earlier work

QS-21
tolerated / maximum dose (cancer patients, above it local erythema and systemic flu-like symptoms): 100 to 150 µg | maximum dose (in vivo): 50 µg
